The source of these data is patent US12016852B2, “Pyrrolidine glycosidase inhibitors” (Asceneuron SA, priority 2018, dated 2024).

One may read the IC50 as the concentration at which inhibition is half-maximal.

This experiment deals with T1, Human O-GlcNAcase (His-Tagged hOGA) (Homo sapiens, UniProt O60502).
T1 sequence (O60502 1-916): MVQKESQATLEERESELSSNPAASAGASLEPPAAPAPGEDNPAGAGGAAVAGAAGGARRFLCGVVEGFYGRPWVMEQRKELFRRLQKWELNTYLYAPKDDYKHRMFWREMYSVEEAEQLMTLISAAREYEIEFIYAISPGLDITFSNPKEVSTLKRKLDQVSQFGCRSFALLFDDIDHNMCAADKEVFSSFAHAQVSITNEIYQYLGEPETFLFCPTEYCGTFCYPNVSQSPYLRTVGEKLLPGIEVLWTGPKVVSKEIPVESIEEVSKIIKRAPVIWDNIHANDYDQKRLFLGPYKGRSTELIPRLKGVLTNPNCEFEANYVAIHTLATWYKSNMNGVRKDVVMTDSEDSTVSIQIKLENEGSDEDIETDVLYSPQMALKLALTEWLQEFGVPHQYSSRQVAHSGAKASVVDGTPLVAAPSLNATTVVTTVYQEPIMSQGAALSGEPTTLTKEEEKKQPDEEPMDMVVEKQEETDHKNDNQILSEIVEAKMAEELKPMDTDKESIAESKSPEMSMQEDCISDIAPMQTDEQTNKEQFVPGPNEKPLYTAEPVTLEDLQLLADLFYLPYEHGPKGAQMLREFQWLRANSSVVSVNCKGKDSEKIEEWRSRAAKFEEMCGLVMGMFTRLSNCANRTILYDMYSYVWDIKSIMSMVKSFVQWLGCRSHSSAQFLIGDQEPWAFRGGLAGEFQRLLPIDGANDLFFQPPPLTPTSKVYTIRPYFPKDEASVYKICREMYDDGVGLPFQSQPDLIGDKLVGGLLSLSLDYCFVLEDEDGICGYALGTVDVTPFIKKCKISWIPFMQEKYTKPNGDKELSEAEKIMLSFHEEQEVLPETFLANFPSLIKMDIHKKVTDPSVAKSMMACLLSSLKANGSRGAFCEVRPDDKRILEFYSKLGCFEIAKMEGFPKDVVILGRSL
In words: Human O-GlcNAcase enzyme inhibition assay. Type of experiment: biochemical. The following applies: 20 nM His-Tagged hOGA, 10 μM FL-GlcNAc, McIlvaine's Buffer pH 6.5, 60 min at room temperature, fluorescence; read-out: OGA IC50. How it is done:
Example B01: Human O-GlcNAcase Enzyme Inhibition Assay
5 μl of the appropriate concentration of a solution of inhibitor in Mcllvaine's Buffer (pH 6.5) in 2% DMSO (for a dose response curve calculation) is added into each well of a 384-well plate (Greiner, 781900). Then, 20 nM of His-Tagged hOGA and 10 μM of FL-GlcNAc (Fluorescein mono-beta-D-(2-deoxy-2-N-acetyl) glucopyranoside; Marker Gene Technologies Inc, M1485) were added to the 384-well plate for a final volume of 20 μl. After incubation for 60 min at room temperature, the reaction was terminated by the addition of 10 μL of stop buffer (200 mM glycine, pH 10.75). The level of fluorescence (λexc 485 nm; (λemm 520 nm) was read on a PHERAstar machine. The amount of fluorescence measured was plotted against the concentration of inhibitor to produce a sigmoidal dose response curve to calculate an IC50. All individual data was corrected by subtraction of the background (Thiamet 3 uM=100% inhibition) whilst 0.5% DMSO was considered as the control value (no inhibition).

Take `Cn1cc(-c2ccc(CN3CCCC3c3ccc4c(c3)OCCO4)cc2)cn1` (racemic) [Example 4, 4-(4-((2-(2,3-dihydrobenzo[b] [1,4]dioxin-6-yl)pyrrolidin-1-yl)methyl)phenyl)-1-methyl-1H-pyrazole]: the IC50 was in the range of 50 to 200 nM.
Next, `Cn1cc(-c2ccc(CN3CCCC3c3ccc4c(c3)OCCO4)cn2)cn1` (racemic) [Example 5, 5-((2-(2,3-dihydrobenzo[b] [1,4]dioxin-6-yl)pyrrolidin-1-yl)methyl)-2-(1-methyl-1H-pyrazol-4-yl)pyridine]: 50 to 200 nM; `CS(=O)(=O)c1ccc(CN2CCCC2c2ccc3c(c2)OCCO3)cc1` (racemic) [Example 8, 2-(2,3-dihydrobenzo[b] [1,4]dioxin-6-yl)-1-(4-(methylsulfonyl)benzyl) pyrrolidine]: 200 to 1000 nM; `c1ccc(-c2ccc(CN3CCCC3c3ccc4c(c3)OCCO4)cc2)cc1` (racemic) [Example 9, 1-([1,1′-biphenyl]-4-ylmethyl)-2-(2,3-dihydrobenzo[b] [1,4]dioxin-6-yl)pyrrolidine]: 200 to 1000 nM.
The same measure for `CS(=O)(=O)c1ccc(CN2CCCC2c2ccc3c(c2)OCC3)cc1` (racemic) [Example 10, 2-(2,3-dihydrobenzofuran-6-yl)-1-(4-(methylsulfonyl)benzyl)pyrrolidine]: 200 to 1000 nM.
Take `Cn1cc(-c2ccc(CN3CCCC3c3ccc4c(c3)OCC4)cc2)cn1` (racemic) [Example 11, 4-(4-((2-(2,3-dihydrobenzofuran-6-yl)pyrrolidin-1-yl)methyl)phenyl)-1-methyl-1H-pyrazole]: the IC50 is below 50 nM.
Next, `Cn1cc(-c2ccc(CN3CCCC3c3ccc4c(c3)OCC4)cn2)cn1` (racemic) [Example 12, 5-((2-(2,3-dihydrobenzofuran-6-yl)pyrrolidin-1-yl)methyl)-2-(1-methyl-1H-pyrazol-4-yl)pyridine]: 50 to 200 nM; `CS(=O)(=O)c1ccc(-c2ccc(CN3CCCC3c3ccc4c(c3)OCCO4)nc2)cc1` (racemic) [Example 14, 2-((2-(2,3-dihydrobenzo[b] [1,4]dioxin-6-yl)pyrrolidin-1-yl)methyl)-5-(4-(methylsulfonyl)phenyl)pyridine]: 200 to 1000 nM; `c1cnn(-c2ccc(CN3CCCC3c3ccc4c(c3)OCCO4)cc2)c1` (racemic) [Example 16, 1-(4-((2-(2,3-dihydrobenzo[b] [1,4]dioxin-6-yl)pyrrolidin-1-yl)methyl)phenyl)-1H-pyrazole]: 50 to 200 nM.
The same measure for `c1cnc2ccc(CN3CCCC3c3ccc4c(c3)OCCO4)cc2c1` (racemic) [Example 19, 6-((2-(2,3-dihydrobenzo[b] [1,4]dioxin-6-yl)pyrrolidin-1-yl)methyl)quinoline]: 200 to 1000 nM; for `Cn1ncc2cc(CN3CCCC3c3ccc4c(c3)OCCO4)ccc21` (racemic) [Example 20, 5-((2-(2,3-dihydrobenzo[b] [1,4]dioxin-6-yl)pyrrolidin-1-yl)methyl)-1-methyl-1H-indazole]: 200 to 1000 nM.
The same measure for `Cn1cc(-c2cccc(CN3CCCC3c3ccc4c(c3)OCCO4)c2)cn1` (racemic) [Example 21, 4-(3-((2-(2,3-dihydrobenzo[b] [1,4]dioxin-6-yl)pyrrolidin-1-yl)methyl)phenyl)-1-methyl-1H-Pyrazole]: 200 to 1000 nM; for `c1ccc(-c2ccc(CN3CCCC3c3ccc4c(c3)OCC4)cc2)cc1` (racemic) [Example 22, 1-([1,1′-biphenyl]-4-ylmethyl)-2-(2,3-dihydrobenzofuran-6-yl)pyrrolidine]: 200 to 1000 nM.
With `c1cc(N2CCOCC2)ccc1CN1CCCC1c1ccc2c(c1)OCCO2` (racemic) [Example 23, 4-(4-((2-(2,3-dihydrobenzo[b] [1,4]dioxin-6-yl)pyrrolidin-1-yl)methyl)phenyl)morpholine], the IC50 lay in the range of 200 to 1000 nM.
With `c1cc(N2CCOCC2)ccc1CN1CCCC1c1ccc2c(c1)OCC2` (racemic) [Example 24, 4-(4-((2-(2,3-dihydrobenzofuran-6-yl)pyrrolidin-1-yl)methyl)phenyl)morpholine], the concentration for half-maximal inhibition (IC50) lay within 200 to 1000 nM.
The same measure for `c1ccc2ncc(CN3CCCC3c3ccc4c(c3)OCCO4)cc2c1` (racemic) [Example 26, 3-((2-(2,3-dihydrobenzo[b] [1,4]dioxin-6-yl)pyrrolidin-1-yl)methyl)quinoline]: 200 to 1000 nM; for `c1cc(N2CCSCC2)ccc1CN1CCCC1c1ccc2c(c1)OCCO2` (racemic) [Example 28, 4-(4-((2-(2,3-dihydrobenzo[b] [1,4]dioxin-6-yl)pyrrolidin-1-yl)methyl) Phenyl) thiomorpholine]: 200 to 1000 nM.
The same measure for `c1ccc(-c2ccc(CN3CCCC3c3ccc4c(c3)OCCO4)cc2)nc1` (racemic) [Example 29, 2-(4-((2-(2,3-dihydrobenzo[b] [1,4]dioxin-6-yl)pyrrolidin-1-yl)methyl)phenyl)pyridine]: 200 to 1000 nM.
In the case of `c1cncc(-c2ccc(CN3CCCC3c3ccc4c(c3)OCCO4)cc2)c1` (racemic) [Example 30, 3-(4-((2-(2,3-dihydrobenzo[b] [1,4]dioxin-6-yl)pyrrolidin-1-yl)methyl)phenyl) pyridine], the IC50 lay within 50 to 200 nM.
The same measure for `Clc1cc(-c2cccnc2)ccc1CN1CCCC1c1ccc2c(c1)OCCO2` (racemic) [Example 31, 3-(3-chloro-4-((2-(2,3-dihydrobenzo[b] [1,4]dioxin-6-yl)pyrrolidin-1-yl)methyl)phenyl)pyridine]: 200 to 1000 nM; for `Fc1cc(-c2cccnc2)ccc1CN1CCCC1c1ccc2c(c1)OCCO2` (racemic) [Example 32, 3-(4-((2-(2,3-dihydrobenzo[b] [1,4]dioxin-6-yl)pyrrolidin-1-yl)methyl)-3-fluorophenyl)pyridine]: 50 to 200 nM; for `c1ncn(-c2ccc(CN3CCCC3c3ccc4c(c3)OCCO4)cc2)n1` (racemic) [Example 34, 1-(4-((2-(2,3-dihydrobenzo[b] [1,4]dioxin-6-yl)pyrrolidin-1-yl)methyl)phenyl)-1H-1,2,4-triazole]: 50 to 200 nM.
The same measure for `c1cnc(N2CCC(CN3CCCC3c3ccc4c(c3)OCCO4)CC2)nc1` (racemic) [Example 35, 2-(4-((2-(2,3-dihydrobenzo[b] [1,4]dioxin-6-yl)pyrrolidin-1-yl)methyl)piperidin-1-yl)pyrimidine]: 200 to 1000 nM; for `CS(=O)(=O)N1CCN(c2ccc(CN3CCCC3c3ccc4c(c3)OCCO4)cc2)CC1` (racemic) [Example 36, 1-(4-((2-(2,3-dihydrobenzo[b] [1,4]dioxin-6-yl)pyrrolidin-1-yl)methyl)phenyl)-4-(methylsulfonyl)piperazine]: 200 to 1000 nM; for `CC(=O)N1CCN(c2ccc(CN3CCCC3c3ccc4c(c3)OCCO4)cc2)CC1` (racemic) [Example 37, 1-(4-(4-((2-(2,3-dihydrobenzo[b] [1,4]dioxin-6-yl)pyrrolidin-1-yl)methyl)phenyl)piperazin-1-yl)ethan-1-one]: 200 to 1000 nM.
`Cc1cc(-c2cccnc2)ccc1CN1CCCC1c1ccc2c(c1)OCCO2` (racemic) [Example 38, 3-(4-((2-(2,3-dihydrobenzo[b] [1,4]dioxin-6-yl)pyrrolidin-1-yl)methyl)-3-methylphenyl)pyridine]: the IC50 was in the range of 50 to 200 nM.
